{"source": "patent US20110146678A1", "about": "“PROCESS FOR IMPROVING CRYSTALLINITY” (priority 2008, published 2011)", "key": {"[1]": {"assay": "Cohesive-adhesive balance (CAB) by AFM colloid probe", "type": "physicochemical", "details": "for adhesive FP-Lactose interactions, times greater than cohesive FP-FP interactions (CAB analysis): equivalent contact geometry, 20° C., 45% RH; for adhesiveness to lactose (FIG. 29): comparison between batches", "from_the_text": "The cohesive-adhesive balance (CAB) approach of the AFM colloid probe technique is a development that enables direct quantification of the cohesive and adhesive nature—“the force balance” of an API within a formulation. It is a commercially available screening tool in determining the cohesive/adhesive force interactions between potential formulation components using milligrams or less of material.\nThe CAB approach measures the forces of interaction between API particles, mounted as colloid AFM probes, and well-defined crystalline surfaces of the API and carrier substrates. A CAB plot generated from the interaction of a number of probes allows a characteristic measurement of the cohesive nature of the API, in relation to its adhesive propensity with an excipient material to be quantified. The development of the CAB approach has overcome a number of the limitations associated with conventional AFM colloid probe methodologies, including issues regarding instrumental validation and the need to determine the true area of contact of the interacting surfaces. […] Drug-carrier combinations with a higher CAB ratio, such as >1, results in a higher fine particle fraction (FPF) upon aerosolisation, despite potential difference between the carriers in terms of size, shape, roughness and flowability. Drug-carrier combinations with a lower CAB ratio, such as, <1 result in greater […] of the active particle to the carrier, therefore the active particle is more likely to remain attached to the carrier. This means that in an inhaled composition, the active particle which remains attached to the carrier particle may not reach the lung and may be deposited in the throat or on the tongue. Preferably, the particles produced according to the present invention have much lower cohesiveness than particles prepared by other methods including micronization and milling. With respect to a measure of cohesiveness, since all substrates will be different with respect to their cohesive and adhesive properties, the CAB ratio is a dimensionless value which is a more useful measure for comparison. Preferably, the particles produced according to the present invention have CAB ratios with the carrier particles of 0.8-1.3, more preferably 0.9-1.2, more preferably, 1.0- 1.1. This is a careful balance between the cohesion of the drug with itself and the adhesion of the drug with the carrier.\nThe cohesive-adhesive balance (CAB) of micronized Fluticasone Propionate (FP) and batches of FP engineered by the method of the current invention (samples 2 and 3) and by a different method exemplified in WO 2008/114052 A1 (sample 4), as described in Example 1, were determined with respect to crystalline substrates of FP and lactose monohydrate. The CAB force balance of the different batches with respect to the crystalline substrates was determined as follows:\nParticles (n=3) of all batches of FP were attached onto standard V-shaped tipless cantilevers (DNP-020, DI, CA, USA) using an epoxy resin glue (Araldite, Cambridge, UK).\nSmooth crystals of lactose were produced on cooling of a heated saturated droplet sandwiched between cover slips. Smooth drug crystals were produced using sitting-drop anti-solvent crystallisation, in which the active was dissolved in acetone and the anti-solvent employed was water.\nIndividual force curves (n=1024) were conducted over a 10 μm×10 μm area at a scan rate of 4 Hz and a compressive load of 40 nN. Environmental conditions were maintained at a constant temperature of 20° C. (±1.5 ° C.) and relative humidity 45±3%."}, "[2]": {"assay": "Aerosolisation efficiency of binary DPI formulations (0.4% w/w FP in lactose), NGI via Rotahaler", "type": "physicochemical", "details": "binary DPI, Rotahaler 60 Lpm", "method": "The aerosolization efficiency of samples 2, 3 and 4 of engineered FP were evaluated using binary formulations containing 0.4% w/w FP.\nEach binary formulation contained 0.016 g FP and 3.984 g lactose (ML001, DMV-Fonterra, Vehgel, Netherlands) and was prepared by geometric mixing. Following this, the blend was subsequently prepared using a Turbula T2F (Willy A Bachofen A G, Basel, Switzerland) at 46 rpm for 45 minutes.\nFollowing content uniformity testing, 12.5±1 mg of each blend was loaded into size 3 hydroxypropylmethyl cellulose capsules (HPMC, Shionogi Qualicaps S A, Basingstoke, UK). The capsules were stored at 44% RH for 24 h prior to in vitro performance testing.\nTesting was performed using a Next Generation Impactor (NGI) with pre-separator, which was connected to a vacuum pump (GE Motors). Prior to testing, the pre-separator was filled with 15 ml of mobile phase and the cups of the NGI cups were coated with 1% v/v silicone oil in hexane to eliminate particle bounce.\nFor each experiment, four individual capsules of the same formulation were discharged into the NGI at 60 Lpm for 4 s via a Rotahaler (GSK, Ware, UK) DPI device. Additionally, blisters from a Flixotide Diskus (GSK, Ware, UK) were emptied and loaded into size 3 HPMS capsules and discharged into a NGI at 60 Lpm1 for 4 s via a Rotahaler. Following aerosolization, the NGI apparatus was dismantled and the inhaler, capsules and each part of the NGI was washed down into known volumes of HPLC mobile phase.\nThe mass of drug deposited on each part of the NGI was determined by HPLC. This protocol was repeated three times for each blend, following which, the mass median aerodynamic diameter (MMAD), geometric standard deviation (GSD), fine particle dose (FPD) and fine particle fraction of the emitted dose (FPFED) were determined. The FPD represented the mass of drug that was collected on stages 3-8 of the NGI."}}}
{"molecule": "CCC(=O)O[C@]1(C(=O)SCF)[C@H](C)C[C@H]2[C@@H]3C[C@H](F)C4=CC(=O)C=C[C@]4(C)[C@@]3(F)[C@@H](O)C[C@@]21C", "note": "[Sample 2, Fluticasone propionate]", "values": [{"measurement": "adhesion values (FP-lactose interaction)", "setting": "[1]; AFM force measurement", "result": "128-169 nN"}, {"measurement": "adhesive FP-Lactose interactions, times greater than cohesive FP-FP interactions (CAB analysis)", "setting": "[1]; listed as sample 2 FP", "result": 1.17}, {"measurement": "percentage fine particle fraction (% FPF) compared with micronized FP", "setting": "[2]; listed as Samples 2", "result": "significantly greater than that of micronized FP"}]}
{"molecule": "CCC(=O)O[C@]1(C(=O)SCF)[C@H](C)C[C@H]2[C@@H]3C[C@H](F)C4=CC(=O)C=C[C@]4(C)[C@@]3(F)[C@@H](O)C[C@@]21C", "note": "[Sample 3, Fluticasone propionate]", "values": [{"measurement": "adhesion values (FP-lactose interaction)", "setting": "[1]; AFM force measurement", "result": "35-89 nN"}, {"measurement": "adhesive FP-Lactose interactions, times greater than cohesive FP-FP interactions (CAB analysis)", "setting": "[1]; listed as sample 3 FP", "result": 1.16}, {"measurement": "percentage fine particle fraction (% FPF) compared with micronized FP", "setting": "[2]", "result": "significantly greater than that of micronized FP"}]}
{"molecule": "CCC(=O)O[C@]1(C(=O)SCF)[C@H](C)C[C@H]2[C@@H]3C[C@H](F)C4=CC(=O)C=C[C@]4(C)[C@@]3(F)[C@@H](O)C[C@@]21C", "note": "[Sample 4, fluticasone propionate, reference compound]", "values": [{"measurement": "adhesion values (FP-lactose interaction)", "setting": "[1]; AFM force measurement", "result": "400-800 nN"}, {"measurement": "adhesiveness to lactose (FIG. 29)", "setting": "[1]", "result": "least adhesive to lactose and SX"}, {"measurement": "adhesive FP-Lactose interactions, times greater than cohesive FP-FP interactions (CAB analysis)", "setting": "[1]; listed as sample 4 FP", "result": "almost equal"}, {"measurement": "percentage fine particle fraction (% FPF) compared with micronized FP", "setting": "[2]", "result": "significantly lower % FPF than micronized FP"}]}
{"molecule": "CCC(=O)O[C@]1(C(=O)SCF)[C@H](C)C[C@H]2[C@@H]3C[C@H](F)C4=CC(=O)C=C[C@]4(C)[C@@]3(F)[C@@H](O)C[C@@]21C", "note": "[micronized FP, Fluticasone Propionate]", "values": [{"measurement": "adhesion values", "setting": "[1]; AFM force measurement", "result": "169 to 249", "unit": "nN"}, {"measurement": "adhesiveness to lactose (FIG. 29)", "setting": "[1]", "result": "significantly more adhesive to lactose"}, {"measurement": "adhesive FP-Lactose interactions, times greater than cohesive FP-FP interactions (CAB analysis)", "setting": "[1]", "result": 1.36}]}
